Measurements as given in patent publication US20140073694A1, “CYSTAMINE ANALOGUES FOR THE TREATMENT OF PARKINSON'S DISEASE” (UNIVERSITE LAVAL, priority 2011, published 2014).
“Also recorded” adds a separate entry of the source.

System: MPTP-treated mice
Assay: Subacute MPTP mouse model of Parkinson's disease: nigral DAergic markers (TH, Nurr1, DAT)
Assay type: in vivo, C57BL/6 mice
Protocol: Young adult (9-week old, 25 grams) male C57BL/6 mice were purchased from Charles River Laboratories (Montréal, QC, Canada). Animals were housed 4 per cage under standard conditions with free access to food and water, randomized and handled under the same conditions by one investigator. All experiments were performed in accordance with the Canadian Council on Animal Care and were approved by the Institutional Committee of the Centre Hospitalier de l'Université Laval (CHUL, Québec, Canada). Throughout the experiment, the health status of all mice included in the study was closely monitored for weight loss or other signs of health-related issues. All efforts were made to minimize animal pain and discomfort.
Mice received 7 i.p. injections, twice on the first 2 days of the experimental protocol at an interval of 12 hrs and once a day on 3 subsequent days, of either saline 0.9% or MPTP-HCl (20 mg/kg free base; Sigma, St. Louis, Mo.) dissolved in saline 0.9% prepared fresh (Tremblay et al., 2006; Gibrat et al., 2007; Gibrat et al., 2010).
Beneficial effects of cystamine in parkinsonian mice (cystamine dihydrochloride, Sigma, St. Louis, Mo.) were evaluated with a dose of 10 mg/kg dissolved in sterile saline 0.9% and prepared fresh for daily i.p. injection 1 hr before MPTP administration. The choice of dose and regime of administration was based on our previous findings (Tremblay et al., 2006; Gibrat et al., 2010). The first injection of cystamine was administered either 1) 2 days before the start of MPTP injections (pre-treatment) or 2) 24 hours after the last MPTP dose (post-treatment), and the treatment continued daily for 14 days post injury.
The effects of cystamine on the MPTP toxicity were studied in the following experimental groups: Group I, Saline+Saline; Group II, Saline+Cystamine post-treatment; Group III; Saline+Cystamine pre-treatment; Group IV, MPTP+Saline; Group V, MPTP+Cystamine post-treatment, Group VI, MPTP+Cystamine pre-treatment. In total, 96 mice (n=16 per group) were utilized, monitored daily for weight variation, and ultimately sacrificed by perfusion 24 hrs after the last cystamine (or vehicle) injection.
Experiment 1. All mice were subjected to intracardiac perfusion with RNAse free 0.1 M phosphate-buffered saline (PBS). After intracardiac perfusion, brains were collected and the two hemispheres were separated. The left hemisphere was post-fixed in 4% paraformaldehyde (PFA) for 48 hrs and transferred to 20% sucrose in 0.1 M PBS for cryoprotection. Coronal brain sections of 25 μm thickness were cut onto a freezing microtome (Leica Microsystems, Montreal, QC) and serially collected in anti-freeze solution (monophosphate sodium monobasic 0.2 M, monophosphate sodium dibasic 0.2 M, ethylene glycol 30%, glycerol 20%) and kept at −20° C. until use. Sections from the left hemisphere were utilized for additional immunohistochemistry and in situ hybridization protocols. The right hemispheres were snap-frozen in 2-methyl-butane and then stored at −80° C. until cryostat dissection for HPLC and western-blot (WB) analyses.
For assessment of DAergic neuronal-loss, immunohistochemistry against the enzyme TH was performed as previously described (Tremblay et al., 2006; Gibrat et al., 2009). Briefly, free-floating sections, after several washes and blocking preincubation, were incubated overnight at 4° C. with a rabbit anti-TH (Pel-Freez, Rogers, Ark.; 1:5000). Sections were then incubated for 1 hr at room temperature (RT) in a solution containing biotinylated goat anti-rabbit IgG (Vector Laboratories, Burlington, ON; 1:1500) and subsequently placed in a solution containing avidin-biotin peroxidase complex (ABC Elite kit; Vector Laboratories, Burlington, ON) for 1 hr at RT. Finally, the reaction was developed in 3,3′ diaminobenzidine tetrahydrochloride (DAB) solution (Sigma, St. Louis, Mo.) and 0.1% of 30% hydrogen peroxide (Sigma, St. Louis, Mo.) at RT. […]

[1] = post-treatment: 10 mg/kg i.p. daily started 24 h after last MPTP dose, 14 days
[2] = pre-treatment: 10 mg/kg i.p. daily started 2 days before MPTP

For `NCCSSCCN` [cystamine, Cystamine], the “DAT mRNA / DAT mRNA expressing cells in the SNpc” value [1] was “significant recovery; also recorded: higher level; also recorded: comparable number of DAT-positive cells as saline treated animals”, the “Nurr1 mRNA levels in the SNpc” value [1] was “significant recovery; also recorded: normal levels of Nurr1 mRNA; also recorded: higher level of Nurr1” and the “TH-positive and Nissl-positive neurons in the SNpc, stereological count” value [1] was “significant recovery of the number of nigral DAergic neurons; also recorded: significantly greater number of TH-positive and Nissl-positive neurons”. For the same molecule, the “Nurr1 mRNA levels in the SNpc” value [2] was “normalization of Nurr1 mRNA levels”, the “SNpc neurons expressing DAT” value [2] was “normalization; also recorded: comparable number of DAT-positive cells as saline treated animals” and the “TH-immunoreactive (TH-positive) neurons in the SNpc, stereological count” value (pre-treatment: 10 mg/kg i.p. daily started 2 days before MPTP, continued 14 days post injury) was “increase density of TH-immunoreactive cells in the SNpc”.
